Text: A test tank with a capacity of approximately 1100 liters was fitted with a HAYWARD® sand filter. The filter was approximately 0.09 square meters and contained approximately 18 kg of coarse sand. An identical tank was fitted with a HAYWARD ® cartridge filter, as is typically used with swimming pools. […] Water is then drawn through the filters using a pump. Each unit was fitted with necessary plumbing to permit test samples of reactant to be added upstream of the filter, to simulate adding the reactant to the skimmer in a full-sized pool. In this way, the reactant could be drawn through the plumbing and into or onto the filter. In this test orthophosphate, in the form of Na2HPO4, was used to simulate the increased phosphate level present in the water.
This suspension was added upstream of the filter, thus it was drawn toward and into the filter.

O=S(=O)([O-])[O-].O=S(=O)([O-])[O-].O=S(=O)([O-])[O-].[La+3].[La+3] [La2(SO4)3, lanthanum sulfate]
ratio of PO4 recovered to La added (commercial grade (approximately 99.5% purity), 0.8 g Na2HPO4 added, otherwise as Example 1): 0.35 | PO4 removed (reagent grade (99.9% pure), 3.5 g in 50 ml tap water added upstream of filter, 1135 L, approx. 800 ppb phosphate, after 2 hours pumping at approx. 75 L/min): 0.65 g | ratio of PO4 to La observed in the experiment (reagent grade (99.9% pure), 3.5 g, after 2 hours): 0.38
